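Cultured in 96-well plates, cells were exposed to test compound for 48 hours across five concentrations. The concentration for 50% growth inhibition is given as GI50. At the TGI there is no net growth.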
How the values were obtained:
Assay in all cases: NCI tumour cell line growth inhibition, 48 h
[1] = system: LOX IMVI melanoma
[2] = system: NCI-H23 lung
[3] = system: NCI-H460 lung
[4] = system: NCI/ADR-RES ovarian
[5] = system: SNB-19 CNS
[6] = system: HOP-62 NSCLC
[7] = system: OVCAR-8 ovarian
[8] = system: HCT-15 colon
[9] = system: SN12C renal
[10] = system: ACHN renal
[11] = system: A549 NSCLC
[12] = system: EKVX NSCLC
[13] = system: SR leukemia
[14] = system: SF-539 CNS
[15] = system: SK-MEL-2 melanoma
[16] = system: SF-295 CNS
[17] = system: TK-10 renal
[18] = system: HOP-92 NSCLC
[19] = system: A498 renal
[20] = system: PC-3 prostate
[21] = system: NCI-H522 lung
[22] = system: HCT-116 colon
[23] = system: M14 melanoma
[24] = system: MDA-MB-435
[25] = system: OVCAR-3 ovarian
[26] = system: CCRF-CEM leukemia
[27] = system: T-47D breast
[28] = system: SK-MEL-28 melanoma
[29] = system: UO-31 renal

Which GI50 [1] does the source give for `O=C(CN1CCN(c2ncccn2)CC1)Nc1ccc(Cl)cc1C(=O)c1ccccc1Cl` here?
Its GI50 is > 100 µM.

And the TGI [1]?
Its TGI is > 100 µM.

And the GI50 [2]?
The GI50 was > 100 µM.

And the TGI [2]?
The TGI was > 100 µM.

What about the GI50 [3] of the same molecule?
The GI50 was > 100 µM.

And the TGI [3]?
Its TGI is > 100 µM.

What about the GI50 [4] of the same molecule?
Its GI50 is > 100 µM.

What about the TGI [4] of the same molecule?
The TGI was > 100 µM.

What about the GI50 [5] of the same molecule?
Its GI50 is > 100 µM.

What about the TGI [5] of the same molecule?
The TGI was > 100 µM.

What about the GI50 [6] of the same molecule?
Its GI50 is 13.2 µM.

What about the TGI [6] of the same molecule?
Its TGI is 57.5 µM.

And the GI50 [7]?
The GI50 was > 100 µM.

And the TGI [7]?
The TGI was > 100 µM.

And the GI50 [8]?
The GI50 was > 100 µM.

What about the TGI [8] of the same molecule?
The TGI was > 100 µM.

What about the GI50 [9] of the same molecule?
Its GI50 is > 100 µM.

And the TGI [9]?
Its TGI is > 100 µM.

What about the GI50 [10] of the same molecule?
The GI50 was > 100 µM.

And the TGI [10]?
Its TGI is > 100 µM.

And the GI50 [11]?
The GI50 was 47.6 µM.

And the TGI [11]?
The TGI was > 100 µM.

And the GI50 [12]?
Its GI50 is > 100 µM.

What about the TGI [12] of the same molecule?
The TGI was > 100 µM.

What about the GI50 [13] of the same molecule?
The GI50 was 67.8 µM.

And the TGI [13]?
The TGI was > 100 µM.

And the GI50 [14]?
The GI50 was > 100 µM.

What about the TGI [14] of the same molecule?
The TGI was > 100 µM.

And the GI50 [15]?
Its GI50 is > 100 µM.

And the TGI [15]?
Its TGI is > 100 µM.

What about the GI50 [16] of the same molecule?
The GI50 was > 100 µM.

And the TGI [16]?
The TGI was > 100 µM.

What about the GI50 [17] of the same molecule?
The GI50 was > 100 µM.

And the TGI [17]?
The TGI was > 100 µM.

And the GI50 [18]?
The GI50 was 5.73 µM.

What about the TGI [18] of the same molecule?
Its TGI is 75.1 µM.

And the GI50 [19]?
The GI50 was > 100 µM.

What about the TGI [19] of the same molecule?
The TGI was > 100 µM.

What about the GI50 [20] of the same molecule?
The GI50 was 9.47 µM.

And the TGI [20]?
Its TGI is > 100 µM.

What about the GI50 [21] of the same molecule?
The GI50 was 46.6 µM.

What about the TGI [21] of the same molecule?
Its TGI is > 100 µM.

And the GI50 [22]?
Its GI50 is 78.7 µM.

And the TGI [22]?
The TGI was > 100 µM.

And the GI50 [23]?
The GI50 was > 100 µM.

And the TGI [23]?
Its TGI is > 100 µM.

What about the GI50 [24] of the same molecule?
Its GI50 is > 100 µM.

What about the TGI [24] of the same molecule?
Its TGI is > 100 µM.

What about the GI50 [25] of the same molecule?
The GI50 was > 100 µM.

And the TGI [25]?
Its TGI is > 100 µM.

And the GI50 [26]?
The GI50 was 83.5 µM.

What about the TGI [26] of the same molecule?
Its TGI is > 100 µM.

And the GI50 [27]?
The GI50 was 30.8 µM.

What about the TGI [27] of the same molecule?
The TGI was > 100 µM.

And the GI50 [28]?
Its GI50 is > 100 µM.

And the TGI [28]?
Its TGI is > 100 µM.

And the GI50 [29]?
The GI50 was > 100 µM.

And the TGI [29]?
Its TGI is > 100 µM.
